Patent publication US11420944B2, “Voltage-dependent t-type calcium channel blocker” (Nippon Chemiphar Co., Ltd., priority 2016, dated 2022)
Like-named read-outs stand apart in the source and are kept apart here.

How the values were obtained:
[1] = molecular target: T1, human Cav3.2 channels (Homo sapiens, UniProt O95180); experiment: Electrophysiological evaluation, whole-cell patch-clamp with automatic patch-clamp system; format: cell-based; settings: for inhibition at 0.3 µM: holding potential −80 mV, read-out: Cav3.2 channel current inhibition ratio at 0.3 μM of test compound (holding potential −80 mV)
T1 construct: expressed in transfected cells; host or cells: HEK293 cells (ATCC No. CRL-1573), plasmid pcDNA3.1(+)
Method in brief: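 Stable human Cav3.2 cell line, automated whole-cell patch clamp at room temperature. Peak inward current on 100 msec steps to −20 mV every 10 sec; five concentrations applied cumulatively by perfusion. Inhibition scored at 0.3 μM compound from −80 mV holding, or 3 μM from −100 mV.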

[2] = molecular target: T1, human Cav3.2 channels; experiment: Intracellular calcium concentration measurement (Fluo-4 AM) in stable cells expressing human Cav3.2 channels, buffer A / buffer B; format: cell-based
Method in brief: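 HEK293 cells stably expressing human Cav3.2, Fluo-4 loaded, preincubated 15 min at room temperature with compound (0.1% DMSO final) in buffer A (K+ equilibrium −92 mV) or B (−110 mV). After ionophore, KCl (83.8 or 91.8 mM) stimulus; 10 s fluorescence rise (ex 485/em 510 nm) gave % inhibition and IC50.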

[3] = test system: mouse partial sciatic nerve ligation (PSNL) model; experiment: Mechanical allodynia in a mouse partial sciatic nerve ligation (PSNL) model, intraperitoneal administration; format: in vivo; settings: intraperitoneally administered, 20 to 30 mg/kg, compared to the vehicle group
Procedure: Mechanical Allodynia in a Mouse Partial Sciatic Nerve Ligation (PSNL) Model
(§1) Production of a mouse PSNL model was carried out according to the method of Seltzer, et al. A mouse was subjected to inhalation anesthesia with isoflurane. The femoral region of the mouse was shaved and disinfected with isodine. The skin on the thighbone of the mouse was incised, the fascia underneath the skin was cut, and the biceps femoris muscle was divided at a site between the heads of muscles. The sciatic nerve underneath the incision was checked, and then the sciatic nerve was detached without damaging the nerve. The needle of an 8-0 silk suture with a needle was passed through the sciatic nerve so as to penetrate through the nerve, and thus a portion of about ½ to ⅓ of the sciatic nerve was ligated. The skin was sutured, and the mouse was kept for about 7 days. The surgery of a Sham control mouse was performed only for checking of the sciatic nerve, and the skin was sutured.
(§2) The measurement of pain threshold was carried out after the mouse was transferred into a cage for measurement and was waited until exploratory behavior had disappeared. […] The 50% threshold was calculated by an up-down method by referring to the method of Chaplan, et al. (Quantitative assessment of tactile allodynia in the […]. J Neurosci Methods, 53, 1994, 55-63). […]

[4] = molecular target: T2, CYP3A4 (Homo sapiens, UniProt P08684); experiment: Evaluation of CYP3A4 activity inhibitory action; format: in vitro ADME; settings: Human CYP3A4BR EasyCYP Bactosomes, 7-Benzyloxy-4-(trifluoromethyl)-coumarin
T2 construct: purchased Cypex, Ltd; host or cells: E. coli membranes (Bactosomes)
Procedure: Evaluation of CYP3A4 Activity Inhibitory Action
To a 50 mM potassium phosphate buffer solution (pH 7.4), 5 nM Human CYP3A4BR EasyCYP Bactosomes (Cypex, Ltd.), 50 μM 7-Benzyloxy-4-(trifluoromethyl)-coumarin, cofactor mix (0.0081 mM β-NADP^+, 0.4 mM G-6-P, 0.4 mM MgCl2, and 0.2 U/mL G-6-P DH(Y)), and 0.01% Pluronic F-127 were added, and the mixture was incubated for 45 minutes at 37° C. The reaction was initiated by adding the cofactor mix. After the incubation, 0.5 M Tris base/acetonitrile (20:80) was added thereto as a reaction terminating liquid, and the resulting mixture was stirred. Subsequently, the fluorescence intensity (excitation: 405 nm, emission: 535 nm) was measured. The reaction was carried out in duplicate. The results are presented as the inhibition rate at 10 μM of the test compound.

[5] = test system: mouse PSNL model; experiment: Mechanical allodynia in mouse PSNL model, peroral administration; format: in vivo; settings: perorally administered, 10 mg/kg and 30 mg/kg, compared to the vehicle group
Procedure: Mechanical Allodynia in Mouse PSNL Model
as §1, §2

[6] = Tables 2 to 6, buffer A, equilibrium potential of potassium −92 mV, read-out: Inhibitory action of buffer A (inactivated state)

T1 sequence (O95180 whole entry): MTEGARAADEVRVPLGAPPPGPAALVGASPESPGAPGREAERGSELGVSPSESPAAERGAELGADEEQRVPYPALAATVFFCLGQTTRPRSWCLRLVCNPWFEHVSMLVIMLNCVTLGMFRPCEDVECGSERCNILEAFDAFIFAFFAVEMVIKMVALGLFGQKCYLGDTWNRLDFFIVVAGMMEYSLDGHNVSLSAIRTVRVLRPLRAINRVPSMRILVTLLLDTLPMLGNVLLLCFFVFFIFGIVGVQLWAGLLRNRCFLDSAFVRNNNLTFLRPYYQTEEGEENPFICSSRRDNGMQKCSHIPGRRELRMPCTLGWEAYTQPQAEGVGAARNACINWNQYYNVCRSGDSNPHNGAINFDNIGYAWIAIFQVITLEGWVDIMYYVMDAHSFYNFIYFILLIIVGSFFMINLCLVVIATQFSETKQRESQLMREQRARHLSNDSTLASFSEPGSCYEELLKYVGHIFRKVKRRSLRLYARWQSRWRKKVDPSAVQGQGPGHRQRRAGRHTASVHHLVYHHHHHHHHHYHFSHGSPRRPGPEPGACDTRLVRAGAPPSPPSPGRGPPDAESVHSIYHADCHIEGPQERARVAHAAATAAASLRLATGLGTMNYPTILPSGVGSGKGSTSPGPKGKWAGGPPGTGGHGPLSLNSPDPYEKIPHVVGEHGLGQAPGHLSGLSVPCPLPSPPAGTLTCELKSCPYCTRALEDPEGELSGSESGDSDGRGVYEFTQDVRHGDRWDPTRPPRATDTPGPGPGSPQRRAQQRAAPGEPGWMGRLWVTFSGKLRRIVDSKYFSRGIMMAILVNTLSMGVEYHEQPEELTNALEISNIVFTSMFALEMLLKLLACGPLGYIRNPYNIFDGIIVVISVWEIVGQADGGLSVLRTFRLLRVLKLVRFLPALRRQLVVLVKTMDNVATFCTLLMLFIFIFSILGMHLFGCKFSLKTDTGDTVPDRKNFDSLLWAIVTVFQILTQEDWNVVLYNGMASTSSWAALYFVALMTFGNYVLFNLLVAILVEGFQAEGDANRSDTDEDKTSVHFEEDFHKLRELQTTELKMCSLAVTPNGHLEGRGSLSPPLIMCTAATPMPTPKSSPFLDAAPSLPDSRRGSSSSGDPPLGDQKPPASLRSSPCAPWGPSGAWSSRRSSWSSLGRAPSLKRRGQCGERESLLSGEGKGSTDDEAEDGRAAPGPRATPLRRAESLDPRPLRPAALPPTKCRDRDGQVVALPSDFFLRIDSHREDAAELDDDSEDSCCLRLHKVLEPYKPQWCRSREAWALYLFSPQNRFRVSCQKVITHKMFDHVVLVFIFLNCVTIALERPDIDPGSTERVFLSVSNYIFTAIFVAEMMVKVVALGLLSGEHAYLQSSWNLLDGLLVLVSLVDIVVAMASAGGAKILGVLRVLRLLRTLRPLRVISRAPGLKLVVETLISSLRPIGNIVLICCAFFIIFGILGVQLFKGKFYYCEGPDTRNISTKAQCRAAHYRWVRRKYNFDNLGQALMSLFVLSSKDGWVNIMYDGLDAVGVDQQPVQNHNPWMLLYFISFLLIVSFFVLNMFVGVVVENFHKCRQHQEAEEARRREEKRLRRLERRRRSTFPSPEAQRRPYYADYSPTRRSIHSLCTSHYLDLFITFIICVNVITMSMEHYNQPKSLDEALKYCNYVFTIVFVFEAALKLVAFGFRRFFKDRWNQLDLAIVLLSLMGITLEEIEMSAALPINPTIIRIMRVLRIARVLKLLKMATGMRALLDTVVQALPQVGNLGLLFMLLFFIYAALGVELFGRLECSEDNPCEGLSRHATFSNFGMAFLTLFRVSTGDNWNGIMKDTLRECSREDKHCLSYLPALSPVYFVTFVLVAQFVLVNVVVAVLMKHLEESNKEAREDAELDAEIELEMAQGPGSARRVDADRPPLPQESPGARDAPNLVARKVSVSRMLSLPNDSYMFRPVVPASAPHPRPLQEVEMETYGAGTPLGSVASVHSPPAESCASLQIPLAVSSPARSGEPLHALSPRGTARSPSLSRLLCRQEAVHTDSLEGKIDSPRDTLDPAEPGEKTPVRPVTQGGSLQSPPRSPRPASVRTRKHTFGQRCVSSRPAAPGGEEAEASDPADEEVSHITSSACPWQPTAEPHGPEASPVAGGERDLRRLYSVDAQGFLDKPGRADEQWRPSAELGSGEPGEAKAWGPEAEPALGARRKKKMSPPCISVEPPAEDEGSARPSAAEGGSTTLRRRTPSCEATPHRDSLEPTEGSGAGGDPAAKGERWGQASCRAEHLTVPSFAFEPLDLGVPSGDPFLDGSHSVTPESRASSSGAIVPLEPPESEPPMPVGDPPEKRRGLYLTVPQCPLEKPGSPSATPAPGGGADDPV
T2 sequence (P08684 whole entry): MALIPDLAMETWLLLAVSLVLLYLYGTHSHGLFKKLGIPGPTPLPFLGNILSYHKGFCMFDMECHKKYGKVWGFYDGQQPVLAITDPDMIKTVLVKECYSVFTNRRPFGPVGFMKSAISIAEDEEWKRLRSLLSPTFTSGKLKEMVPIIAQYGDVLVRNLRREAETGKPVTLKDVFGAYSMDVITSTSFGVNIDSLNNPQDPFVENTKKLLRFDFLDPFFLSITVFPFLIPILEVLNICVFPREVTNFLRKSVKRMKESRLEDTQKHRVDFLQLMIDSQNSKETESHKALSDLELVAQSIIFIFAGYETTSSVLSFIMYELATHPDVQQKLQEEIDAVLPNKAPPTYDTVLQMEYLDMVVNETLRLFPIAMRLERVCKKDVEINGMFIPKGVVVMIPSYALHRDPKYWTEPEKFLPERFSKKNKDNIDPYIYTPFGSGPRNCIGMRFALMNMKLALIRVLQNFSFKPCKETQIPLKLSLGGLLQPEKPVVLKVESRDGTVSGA

Row | Structure (SMILES) | inhibition at 0.3 µM [1] | Cav3.2 channel current inhibition ratio at 3 μM of test compound (holding potential −100 mV) [1] | IC50 ([2]; Table 1, buffer A, equilibrium potential of potassium −92 mV, read-out: Inhibitory action of buffer A (inactivated state)) | IC50 ([2]; Table 1, buffer B, equilibrium potential of potassium −110 mV, read-out: Inhibitory action of buffer B (resting state or closed state)) | CYP3A4 activity inhibition ratio at 10 μM of test compound [4] | IC50 [2, 6] | mechanical allodynia (pain threshold, von Frey filament test) [3] | mechanical allodynia (pain threshold, von Frey filament test) [5]
1 | C[C@@H](NC(=O)C1CC1c1nc2ccccc2[nH]1)c1ccc(OCC(F)(F)F)s1 (single isomer, unassigned) [Example 3A] | 60% | 13% | ≤ 100 nM | > 10000 nM | 12.7% |  | suppressed mechanical allodynia statistically significantly | 
2 | C[C@@H](NC(=O)[C@H]1C[C@@H]1c1nc2ccccc2[nH]1)c1cc2cc(F)ccc2[nH]1 [Example 63, (1S,2S)-2-(1H-benzo[d]imidazol-2-yl)-N—((R)-1-(5-fluoro-1H-indol-2-yl)ethyl)cyclopropane-1-carboxamide] | 91% |  |  |  | 45.7% | ≤ 100 nM |  | 
3 | C[C@@H](NC(=O)[C@H]1C[C@@H]1c1nc2ccccc2[nH]1)c1cc2cc(F)ccc2o1 [Example 65, (1S,2S)-2-(1H-benzo[d]imidazol-2-yl)-N—((R)-1-(5-fluorobenzofuran-2-yl)ethyl)cyclopropane-1-carboxamide] | 81% | 49% |  |  | 4.2% | ≤ 100 nM |  | suppressed mechanical allodynia statistically significantly
4 | C[C@@H](NC(=O)[C@H]1C[C@@H]1c1nc2ccccc2[nH]1)c1cc2cc(F)c(F)cc2o1 [Example 91, (1S,2S)-2-(1H-benzo[d]imidazol-2-yl)-N—((R)-1-(5,6-difluorobenzofuran-2-yl)ethyl)cyclopropane-1-carboxamide] | 72% |  |  |  | 20.1% | ≤ 100 nM |  | 
5 | C[C@@H](NC(=O)[C@H]1C[C@@H]1c1nc2ccccc2[nH]1)c1cc2c(F)cc(F)cc2o1 [Example 92, (1S,2S)-2-(1H-benzo[d]imidazol-2-yl)-N—((R)-1-(4,6-difluorobenzofuran-2-yl)ethyl)cyclopropane-1-carboxamide] | 74% |  |  |  | 23.6% | ≤ 100 nM |  | 

More lines, main results first:

Row | inhibition at 0.3 µM [1] | Cav3.2 channel current inhibition ratio at 3 μM of test compound (holding potential −100 mV) [1] | IC50 ([2]; Table 1, buffer A, equilibrium potential of potassium −92 mV, read-out: Inhibitory action of buffer A (inactivated state)) | IC50 ([2]; Table 1, buffer B, equilibrium potential of potassium −110 mV, read-out: Inhibitory action of buffer B (resting state or closed state)) | CYP3A4 activity inhibition ratio at 10 μM of test compound [4] | IC50 [2, 6] | Structure (SMILES) | mechanical allodynia (pain threshold, von Frey filament test) [3] | mechanical allodynia (pain threshold, von Frey filament test) [5]
6 | 90% | 52% |  |  | 27.9% | ≤ 100 nM | C[C@@H](NC(=O)[C@H]1C[C@@H]1c1nc2ccccc2[nH]1)c1cc2ccc(F)cc2o1 [Example 100, (1S,2S)-2-(1H-benzo[d]imidazol-2-yl)-N—((R)-1-(6-fluorobenzofuran-2-yl)ethyl)cyclopropane-1-carboxamide] |  | 
7 | 58% |  |  |  | 21.2% | 100 to 1000 nM | C[C@@H](NC(=O)[C@H]1C[C@@H]1c1nc2ccccc2[nH]1)c1nc2cc(F)ccc2o1 [Example 105, (1S,2S)-2-(1H-benzo[d]imidazol-2-yl)-N—((R)-1-(5-fluorobenzo[d]oxazol-2-yl)ethyl)cyclopropane-1-carboxamide] |  | 
8 | 32% |  |  |  | 30.0% | 100 to 1000 nM | C[C@@H](NC(=O)[C@H]1C[C@@H]1c1nc2ccccc2[nH]1)c1nc2ccc(F)cc2o1 [Example 114, (1S,2S)-2-(1H-benzo[d]imidazol-2-yl)-N—((R)-1-(6-fluorobenzo[d]oxazol-2-yl)ethyl)cyclopropane-1-carboxamide] |  | 
